Measurements from patent publication US20210186970A1, “SELECTIVE CALCIUM CHANNEL ANTAGONISTS” (Northwestern University, priority 2011, published 2021).
Like-named read-outs stand apart in the source and are kept apart here.

Assays:
[1] = biological target: T1, Cav1.3 L-type Ca channels (Rattus norvegicus, UniProt P27732); test: FLIPR Fluo-8 calcium assay, Cav1.3 channel inhibition in HEK293 cells; type: cell-based
T1 construct: expressed in transfected cells; host or cells: HEK293

[2] = biological target: Cav1.2 L-type Ca channels (Oryctolagus cuniculus, UniProt P15381); test: FLIPR Fluo-8 calcium assay, Cav1.2 channel inhibition in HEK293 cells
[3] = IC50 (μM) CaV1.3, first library, FLIPR, HEK293, value (±SD)
[4] = IC50 (μM) Cav1.3, Table 4, 12 concentration points (0.1 nM~100 μM) in duplicate
[5] = Table 4, Cav1.3 relative to Cav1.2 from IC50 values
[6] = first library, ratio of IC50 Cav1.2 to Cav1.3
[7] = IC50 (μM) CaV1.2, first library, FLIPR, HEK293, value (±SD)
[8] = IC50 (μM) Cav1.2, Table 4, 12 concentration points (0.1 nM~100 μM) in duplicate
[9] = IC50 (μM) Cav1.3, second library, FLIPR, HEK293, value (±SD)
[10] = second library, ratio of IC50 Cav1.2 to Cav1.3
[11] = IC50 (μM) Cav1.2, second library, FLIPR, HEK293, value (±SD)
[12] = IC50 (μM) Cav1.3, third library, FLIPR, HEK293, value (±SD)
[13] = third library, ratio of IC50 Cav1.2 to Cav1.3
[14] = IC50 (μM) Cav1.2, third library, FLIPR, HEK293, value (±SD)
[15] = first library, FLIPR, HEK293, value (±SD), read-out: IC50 (μM) CaV1.3

T1 sequence (P27732 whole entry): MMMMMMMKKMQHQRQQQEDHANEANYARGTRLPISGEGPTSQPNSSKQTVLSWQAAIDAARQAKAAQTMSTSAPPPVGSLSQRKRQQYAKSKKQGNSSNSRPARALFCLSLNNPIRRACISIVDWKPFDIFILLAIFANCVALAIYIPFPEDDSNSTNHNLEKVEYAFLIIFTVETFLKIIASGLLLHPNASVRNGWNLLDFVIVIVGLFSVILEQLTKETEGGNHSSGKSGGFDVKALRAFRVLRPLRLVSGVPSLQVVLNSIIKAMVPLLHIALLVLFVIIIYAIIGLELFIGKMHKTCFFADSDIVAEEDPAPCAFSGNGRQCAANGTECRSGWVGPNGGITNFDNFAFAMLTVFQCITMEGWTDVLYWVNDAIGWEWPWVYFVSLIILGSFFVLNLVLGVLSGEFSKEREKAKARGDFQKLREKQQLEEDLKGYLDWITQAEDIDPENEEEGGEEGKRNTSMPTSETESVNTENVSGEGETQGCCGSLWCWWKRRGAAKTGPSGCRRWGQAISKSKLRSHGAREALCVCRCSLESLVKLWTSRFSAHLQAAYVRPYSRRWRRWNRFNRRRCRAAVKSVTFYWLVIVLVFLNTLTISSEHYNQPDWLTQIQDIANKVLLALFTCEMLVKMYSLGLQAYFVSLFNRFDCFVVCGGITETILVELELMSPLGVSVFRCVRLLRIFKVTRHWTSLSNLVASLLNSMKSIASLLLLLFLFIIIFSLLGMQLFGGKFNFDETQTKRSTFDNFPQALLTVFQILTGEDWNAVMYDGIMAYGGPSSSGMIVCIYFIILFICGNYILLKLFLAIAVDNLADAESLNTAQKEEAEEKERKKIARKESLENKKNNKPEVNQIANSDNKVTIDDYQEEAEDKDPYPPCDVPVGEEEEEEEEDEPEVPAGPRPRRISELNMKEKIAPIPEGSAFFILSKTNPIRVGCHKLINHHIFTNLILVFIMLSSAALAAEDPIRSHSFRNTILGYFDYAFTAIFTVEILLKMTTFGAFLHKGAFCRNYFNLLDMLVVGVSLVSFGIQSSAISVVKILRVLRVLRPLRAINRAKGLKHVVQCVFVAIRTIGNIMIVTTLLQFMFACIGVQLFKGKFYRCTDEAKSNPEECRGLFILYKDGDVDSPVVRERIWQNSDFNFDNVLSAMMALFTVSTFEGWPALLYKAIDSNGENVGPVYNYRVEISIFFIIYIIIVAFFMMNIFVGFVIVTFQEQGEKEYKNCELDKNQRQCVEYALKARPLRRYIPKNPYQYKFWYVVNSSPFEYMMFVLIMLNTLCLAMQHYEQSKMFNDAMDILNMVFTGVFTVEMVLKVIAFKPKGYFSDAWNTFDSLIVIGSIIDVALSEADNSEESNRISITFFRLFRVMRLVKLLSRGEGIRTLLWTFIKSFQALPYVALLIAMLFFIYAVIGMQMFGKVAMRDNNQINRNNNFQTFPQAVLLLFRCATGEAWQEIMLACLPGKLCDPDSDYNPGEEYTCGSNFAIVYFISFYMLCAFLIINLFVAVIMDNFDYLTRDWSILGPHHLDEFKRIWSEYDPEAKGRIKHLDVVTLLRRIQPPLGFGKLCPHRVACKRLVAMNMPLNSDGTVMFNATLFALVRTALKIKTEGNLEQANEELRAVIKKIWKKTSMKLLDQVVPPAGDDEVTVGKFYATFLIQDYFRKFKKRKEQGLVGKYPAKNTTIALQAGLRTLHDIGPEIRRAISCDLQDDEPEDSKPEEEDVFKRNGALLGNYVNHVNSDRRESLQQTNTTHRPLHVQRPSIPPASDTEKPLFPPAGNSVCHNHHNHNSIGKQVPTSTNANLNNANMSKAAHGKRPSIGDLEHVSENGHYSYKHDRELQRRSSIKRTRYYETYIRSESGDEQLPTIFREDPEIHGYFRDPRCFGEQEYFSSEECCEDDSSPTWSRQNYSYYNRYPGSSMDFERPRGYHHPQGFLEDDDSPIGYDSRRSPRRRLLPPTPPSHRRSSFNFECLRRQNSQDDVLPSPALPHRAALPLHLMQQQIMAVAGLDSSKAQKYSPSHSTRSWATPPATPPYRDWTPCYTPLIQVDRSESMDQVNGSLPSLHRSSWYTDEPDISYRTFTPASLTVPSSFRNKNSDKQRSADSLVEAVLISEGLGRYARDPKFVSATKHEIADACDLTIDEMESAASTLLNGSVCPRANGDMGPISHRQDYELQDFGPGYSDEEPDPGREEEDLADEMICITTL
T1 sequence (P54284 whole entry partner): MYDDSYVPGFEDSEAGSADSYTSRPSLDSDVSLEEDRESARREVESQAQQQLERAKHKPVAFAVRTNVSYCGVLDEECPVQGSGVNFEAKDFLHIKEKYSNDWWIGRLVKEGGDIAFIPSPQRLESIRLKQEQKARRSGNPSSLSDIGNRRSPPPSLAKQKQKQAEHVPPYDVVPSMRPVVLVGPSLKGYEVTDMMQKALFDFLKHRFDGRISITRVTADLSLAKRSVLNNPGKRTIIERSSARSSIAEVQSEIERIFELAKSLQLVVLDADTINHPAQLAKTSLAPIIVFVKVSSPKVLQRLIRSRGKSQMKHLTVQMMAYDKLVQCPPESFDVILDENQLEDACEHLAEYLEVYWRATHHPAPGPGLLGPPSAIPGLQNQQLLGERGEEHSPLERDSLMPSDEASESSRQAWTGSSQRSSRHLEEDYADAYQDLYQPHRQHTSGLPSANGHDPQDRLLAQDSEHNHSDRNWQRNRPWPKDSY
T1 sequence (P54289 25-956 partner limits assumed): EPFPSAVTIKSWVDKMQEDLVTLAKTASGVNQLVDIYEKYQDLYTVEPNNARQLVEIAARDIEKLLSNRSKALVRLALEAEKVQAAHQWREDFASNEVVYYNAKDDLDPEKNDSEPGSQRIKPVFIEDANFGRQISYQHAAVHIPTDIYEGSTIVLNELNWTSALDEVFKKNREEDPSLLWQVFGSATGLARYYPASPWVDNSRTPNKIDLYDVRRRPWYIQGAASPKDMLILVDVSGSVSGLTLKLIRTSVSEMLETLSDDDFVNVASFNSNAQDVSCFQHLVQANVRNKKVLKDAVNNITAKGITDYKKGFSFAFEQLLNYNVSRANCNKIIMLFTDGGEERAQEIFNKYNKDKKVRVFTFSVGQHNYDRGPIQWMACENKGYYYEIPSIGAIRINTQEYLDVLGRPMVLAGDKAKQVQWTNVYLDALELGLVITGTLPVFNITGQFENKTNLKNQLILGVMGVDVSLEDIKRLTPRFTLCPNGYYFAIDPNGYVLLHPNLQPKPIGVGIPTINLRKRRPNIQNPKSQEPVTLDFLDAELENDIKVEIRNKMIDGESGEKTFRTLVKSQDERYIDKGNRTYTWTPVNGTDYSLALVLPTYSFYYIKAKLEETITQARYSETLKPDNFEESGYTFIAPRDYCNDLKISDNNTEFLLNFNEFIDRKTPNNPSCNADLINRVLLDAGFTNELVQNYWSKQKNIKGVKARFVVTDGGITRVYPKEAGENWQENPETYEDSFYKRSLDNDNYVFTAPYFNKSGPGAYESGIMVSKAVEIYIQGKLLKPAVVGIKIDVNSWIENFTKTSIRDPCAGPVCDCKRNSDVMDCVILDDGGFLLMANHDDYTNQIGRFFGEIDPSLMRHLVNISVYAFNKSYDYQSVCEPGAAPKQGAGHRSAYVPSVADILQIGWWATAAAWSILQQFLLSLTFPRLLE
T1 sequence (P54289 957-1103 partner limits assumed): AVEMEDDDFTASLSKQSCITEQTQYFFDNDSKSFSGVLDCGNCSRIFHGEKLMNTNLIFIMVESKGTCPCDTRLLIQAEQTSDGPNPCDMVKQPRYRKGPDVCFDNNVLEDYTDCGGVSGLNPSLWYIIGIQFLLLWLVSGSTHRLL

SMILES: O=C1CC(=O)N(C2CCCCC2)C(=O)N1CCc1cccc(Cl)c1 [Compound 3, N-(3-chlorophenethyl)-N′-cyclohexyl-pyrimidine-2,4,6-(1H,3H,5H)-trione]
- melting point: 153 to 154 °C
- IC50 [1, 3]: 1.4 µM
- IC50 [1, 4]: 1.4 µM
- Selectivity [1, 5]: 38
- Selectivity [1, 6]: 38.0
- IC50 [2, 7]: 53.1 µM
- IC50 [2, 8]: 53.1 µM

SMILES: O=C1CC(=O)N(C2CCCCC2)C(=O)N1CCc1cccc(C(F)(F)F)c1 [Compound 6, N-cyclohexyl-N′-(3-thrifluoromethylphenethyl)-pyrimidine-2,4,6-(1H,3H,5H)-trione]
- melting point: 105 to 107 °C
- IC50 [1, 4]: 1.3 µM
- IC50 [1, 9]: 1.3 µM
- Selectivity [1, 5]: 20
- Selectivity [1, 10]: 20.3
- IC50 [2, 8]: 25.8 µM
- IC50 [2, 11]: 25.8 µM

SMILES: O=C1CC(=O)N(C2CCCC2)C(=O)N1CCc1cccc(C(F)(F)F)c1 [Compound 7, N-cyclopentyl-N′-(3-thrifluoromethylphenethyl)-pyrimidine-2,4,6-(1H,3H,5H)-trione]
- melting point: 97 to 98 °C
- IC50 [1, 4]: 1.1 µM
- IC50 [1, 12]: 1.1 µM
- Selectivity [1, 5]: 305
- Selectivity [1, 13]: 305.4
- IC50 [2, 8]: 326 µM
- IC50 [2, 14]: 326 µM

SMILES: O=C1CC(=O)N(C2CCCC2)C(=O)N1CCCCc1ccccc1 [Compound 2, N-cyclopentyl-N′-(4-phenylbutyl)-pyrimidine-2,4,6-(1H,3H,5H)-trione]
- melting point: 85 to 87 °C
- IC50 [1, 3]: 1.3 µM
- IC50 [1, 4]: 1.3 µM
- Selectivity [1, 5]: 34
- Selectivity [1, 6]: 33.7
- IC50 [2, 7]: 43.8 µM
- IC50 [2, 8]: 43.8 µM

SMILES: O=C1CC(=O)N(C2CC3CCC2C3)C(=O)N1CCc1ccc(Cl)cc1 (racemic) [Compound 10, N-(4-chlorophenethyl)-N′-(+)-endo-norbornyl-pyrimidine-2,4,6-(1H,3H,5H)-trione]
- IC50 ([1]; Table 4, 12 concentration points (0.1 nM~100 μM) in duplicate, read-out: IC50 (μM) Cav1.3): 0.6 µM
- IC50 ([1]; read-out: IC50 with Cav1.3): 0.6 µM
- IC50 ([1]; third library, FLIPR, HEK293, value (±SD), read-out: IC50 (μM) Cav1.3): 0.6 µM
- IC50 [2, 8]: 13.5 µM
- IC50 [2, 14]: 13.5 µM

SMILES: O=C1CC(=O)N(CCc2ccc(Cl)cc2Cl)C(=O)N1CCc1ccc(Cl)cc1 [Compound 13]
- IC50 [1, 3]: 1.8 µM
- Selectivity [1, 6]: 1.5
- IC50 [2, 7]: 2.8 µM

SMILES: O=C1CC(=O)N(C2CCCCC2)C(=O)N1CCc1ccc(F)cc1 [Compound 68]
- IC50 [1, 3]: 9.4 µM
- Selectivity [1, 6]: 17.7
- IC50 [2, 7]: 166 µM

SMILES: CCCCCCCCN1C(=O)CC(=O)N(CCc2ccc(Cl)cc2)C1=O [Compound 28]
- IC50 [1, 3]: 1.5 µM
- Selectivity [1, 6]: 1.9
- IC50 [2, 7]: 2.8 µM

SMILES: CCCCCCCCN1C(=O)CC(=O)N(CCCc2ccccc2)C1=O [Compound 60]
- IC50 [1, 15]: 1.1 µM
- Selectivity [1, 6]: 2.5
- IC50 [2, 7]: 2.6 µM

SMILES: N#Cc1cccc(CCN2C(=O)CC(=O)N(C3CCCCC3)C2=O)c1 [Compound 79]
- IC50 [1, 9]: 10.5 µM
- Selectivity [1, 10]: 3.5
- IC50 [2, 11]: 36.5 µM

SMILES: O=C1CC(=O)N(C2CCc3ccccc32)C(=O)N1CCc1ccc(Cl)cc1 (stereo not drawn) [Compound 32]
- IC50 [1, 3]: 8.4 µM
- Selectivity [1, 6]: 1.7
- IC50 [2, 7]: 14.5 µM

SMILES: O=C1CC(=O)N(C2CC2)C(=O)N1CCc1cccc(Cl)c1 [Compound 101]
- IC50 [1, 12]: 26.8 µM
- Selectivity [1, 13]: 0.2
- IC50 [2]: 5.4 µM

SMILES: CC(C)(C)N1C(=O)CC(=O)N(CCc2cccc(Cl)c2)C1=O [Compound 105]
- IC50 [1, 12]: 10.5 µM
- Selectivity [1, 13]: 0.7
- IC50 [2]: 7.2 µM

SMILES: CC(CN1C(=O)CC(=O)N(CCCCc2ccccc2)C1=O)c1ccccc1 (stereo not drawn) [Compound 44]
- IC50 [1, 3]: 2.1 µM
- Selectivity [1, 6]: 7.7
- IC50 [2, 7]: 15.8 µM

SMILES: O=C1CC(=O)N(C2C3CC4CC(C3)CC2C4)C(=O)N1CCc1ccc(Cl)cc1 (stereo not drawn) [Compound 116]
- IC50 [1, 12]: 2.5 µM
- Selectivity [1, 13]: 18.3
- IC50 [2, 14]: 40.4 µM

SMILES: O=C1CC(=O)N(CCc2cccc(F)c2)C(=O)N1CCCCc1ccccc1 [Compound 42]
- IC50 [1, 3]: 1.6 µM
- Selectivity [1, 6]: 3.3
- IC50 [2, 7]: 5.3 µM

SMILES: O=C1CC(=O)N(C2CCc3ccccc32)C(=O)N1CCCCc1ccccc1 (stereo not drawn) [Compound 52]
- IC50 [1, 3]: 5.3 µM
- Selectivity [1, 6]: 1.1
- IC50 [2, 7]: 5.7 µM

SMILES: O=C1CC(=O)N(CCc2ccc(Cl)c(Cl)c2)C(=O)N1CCCCc1ccccc1 [Compound 39]
- IC50 [1, 3]: 1.3 µM
- Selectivity [1, 6]: 2.3
- IC50 [2, 7]: 3.1 µM

SMILES: O=C1CC(=O)N(C23CC4CC(CC(C4)C2)C3)C(=O)N1CCc1ccc(Cl)cc1 [Compound 114]
- IC50 [1, 12]: 3.2 µM
- Selectivity [1, 13]: 0.8
- IC50 [2, 14]: 2.6 µM

SMILES: O=C1CC(=O)N(CCc2ccc3ccccc3c2)C(=O)N1CCc1ccc(Cl)cc1 [Compound 33]
- IC50 [1, 3]: 1.1 µM
- Selectivity [1, 6]: 1.2
- IC50 [2]: 1.4 µM

SMILES: O=C1CC(=O)N(CCc2cccc(C(F)(F)F)c2)C(=O)N1CCCCc1ccccc1 [Compound 43]
- IC50 [1, 3]: 0.5 µM
- Selectivity [1, 6]: 2.3
- IC50 [2, 7]: 1.1 µM

SMILES: O=C1CC(=O)N(C2CCCCC2)C(=O)N1CCc1ccc(Cl)cc1 [Compound 1, N-(4-chlorophenethyl)-N′-cyclohexyl-pyrimidine-2,4,6-(1H,3H,5H)-trione]
- melting point: 146 to 148 °C
- IC50 [1, 3]: 1.1 µM
- IC50 [1, 4]: 1.1 µM
- Selectivity [1, 5]: 35
- Selectivity [1, 6]: 35.1
- IC50 [2, 7]: 38.8 µM
- IC50 [2, 8]: 38.8 µM

SMILES: O=C1CC(=O)N(CCc2ccc([N+](=O)[O-])cc2)C(=O)N1CCCCc1ccccc1 [Compound 46]
- IC50 [1, 3]: 3.5 µM
- Selectivity [1, 6]: 1.2
- IC50 [2, 7]: 4.1 µM

SMILES: Cc1cccc(CCN2C(=O)CC(=O)N(C3CCCCC3)C2=O)c1 [Compound 4, N-cyclohexyl-N′-(3-methylphenethyl)-pyrimidine-2,4,6-(1H,3H,5H)-trione]
- melting point: 182 to 183 °C
- IC50 [1, 4]: 2.2 µM
- IC50 [1, 9]: 2.2 µM
- Selectivity [1, 5]: 35
- Selectivity [1, 10]: 35.4
- IC50 [2, 8]: 77.1 µM
- IC50 [2, 11]: 77.1 µM

SMILES: O=C1CC(=O)N(CCc2cccc([N+](=O)[O-])c2)C(=O)N1CCCc1ccccc1 [Compound 58]
- IC50 [1, 3]: 10.4 µM
- Selectivity [1, 6]: 0.9
- IC50 [2, 7]: 9.5 µM

SMILES: O=C1CC(=O)N(C2CCCc3ccccc32)C(=O)N1CCc1ccc(Cl)cc1 (stereo not drawn) [Compound 30]
- IC50 [1, 3]: 5.6 µM
- Selectivity [1, 6]: 2.3
- IC50 [2, 7]: 12.8 µM

SMILES: Cc1ccc(CCN2C(=O)CC(=O)N(CCc3ccc(Cl)cc3)C2=O)cc1 [Compound 17]
- IC50 [1, 3]: 1.1 µM
- Selectivity [1, 6]: 6.7
- IC50 [2, 7]: 7.1 µM

SMILES: O=C1CC(=O)N(CCc2cccc(F)c2)C(=O)N1CCCc1ccccc1 [Compound 56]
- IC50 [1, 3]: 1.6 µM
- Selectivity [1, 6]: 1.5
- IC50 [2, 7]: 2.5 µM

SMILES: O=C1CC(=O)N(C2CCCC2)C(=O)N1CCc1ccc(Cl)cc1 [Compound 29]
- IC50 [1, 3]: 1.4 µM
- Selectivity [1, 6]: 16.4
- IC50 [2, 7]: 22.4 µM

SMILES: O=C1CC(=O)N(CCCc2ccccc2)C(=O)N1CCCCc1ccccc1 [Compound 49]
- IC50 [1, 15]: 1.3 µM
- Selectivity [1, 6]: 2.0
- IC50 [2, 7]: 2.6 µM

SMILES: COc1ccc(CN2C(=O)CC(=O)N(C3CCCCC3)C2=O)cc1 [Compound 81]
- Selectivity [1]: 2.1
- IC50 [1, 9]: 32.2 µM
- IC50 [2, 11]: 67.8 µM

SMILES: O=C1CC(=O)N(Cc2cccc([N+](=O)[O-])c2)C(=O)N1CCCc1ccccc1 [Compound 57]
- IC50 [1, 3]: 16.5 µM
- Selectivity [1, 6]: 0.8
- IC50 [2, 7]: 13 µM

SMILES: O=C1CC(=O)N(C2CCCCC2)C(=O)N1CCc1cccc(Br)c1 [Compound 5, N-(3-bromophenethyl)-N′-cyclohexyl-pyrimidine-2,4,6-(1H,3H,5H)-trione]
- melting point: 154 to 155 °C
- IC50 [1, 4]: 1.3 µM
- IC50 [1, 9]: 1.3 µM
- Selectivity [1, 5]: 34
- Selectivity [1, 10]: 34.0
- IC50 [2, 8]: 45.8 µM
- IC50 [2, 11]: 45.8 µM
